Results from the supplement of paper PMC10307832.

compound: CC(C)C[C@H](NC(=O)[C@H](CCc1ccccc1)NC(=O)CN1CCOCC1)C(=O)N[C@@H](Cc1ccccc1)C(=O)N[C@@H](CC(C)C)C(=O)[C@@]1(C)CO1 [Carfilzomib] + Cc1nc(Nc2ncc(C(=O)Nc3c(C)cccc3Cl)s2)cc(N2CCN(CCO)CC2)n1 [Dasatinib] (partner 0.075 µM); test: relative viability (nuclei count vs DMSO), 5 days (fraction); higher = more cells survive; conditions: first compound 0.001 µM
How it was run: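 Relative viability equals treated-well nuclei counts divided by vehicle-well nuclei counts. Counts came from 4× images of lung cancer cell lines grown in 1536-well plates for 5 days after pin-tool dosing on the day after seeding. Dosing used one drug alone or a fixed anchor-drug dose plus five library-drug doses (not always all listed) in √10 steps, and values are medians of duplicate plates.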

Going from LXF-289 to NCI-H23, the relative viability rises from 0.151 to 0.811.

Compared with NCI-H322M, NCI-H358 is lower in relative viability: 0.272 for the first, 0.171 for the second.

Compared with NCI-H441, NCI-H460 is lower in relative viability: 0.66 for the first, 0.539 for the second.

Going from NCI-H520 to NCI-H522, the relative viability rises from 0.204 to 0.872.

First: NCI-H596
Second: NCI-H647
The relative viability of the first is higher: 0.607 for the first, 0.198 for the second.

First: NCI-H661
Second: NCI-H838
The relative viability of the first is higher: 0.911 for the first, 0.321 for the second.

Going from NCI-H1355 to NCI-H1395, the relative viability falls from 0.628 to 0.411.

First: NCI-H1437
Second: NCI-H1650
The relative viability of the first is lower: 0.28 for the first, 0.282 for the second.

Going from NCI-H1651 to NCI-H1666, the relative viability rises from 0.361 to 0.812.

Compared with NCI-H1734, NCI-H1755 is lower in relative viability: 0.462 for the first, 0.428 for the second.

Compared with NCI-H1792, NCI-H1915 is lower in relative viability: 0.753 for the first, 0.271 for the second.

First: NCI-H1944
Second: NCI-H1993
The relative viability of the first is lower: 0.214 for the first, 0.604 for the second.

First: NCI-H2009
Second: NCI-H2023
The relative viability of the first is lower: 0.293 for the first, 0.569 for the second.

Compared with NCI-H2085, NCI-H2087 is higher in relative viability: 0.239 for the first, 0.781 for the second.

Going from NCI-H2126 to NCI-H2170, the relative viability falls from 0.655 to 0.56.

First: NCI-H2342
Second: NCI-H2347
The relative viability of the first is higher: 0.364 for the first, 0.335 for the second.

same assay, conditions: first compound 0.003162 µM

Compared with LXF-289, NCI-H23 is higher in relative viability: 0.312 for the first, 0.748 for the second.

Going from NCI-H322M to NCI-H358, the relative viability falls from 0.264 to 0.152.

Going from NCI-H441 to NCI-H460, the relative viability falls from 0.629 to 0.529.

Compared with NCI-H520, NCI-H522 is higher in relative viability: 0.17 for the first, 0.946 for the second.

First: NCI-H596
Second: NCI-H647
The relative viability of the first is higher: 0.583 for the first, 0.21 for the second.

First: NCI-H650
Second: NCI-H661
The relative viability of the first is lower: 0.515 for the first, 1.07 for the second.

Going from NCI-H838 to NCI-H1355, the relative viability rises from 0.333 to 0.785.

First: NCI-H1395
Second: NCI-H1437
The relative viability of the first is lower: 0.426 for the first, 0.483 for the second.

Compared with NCI-H1650, NCI-H1651 is lower in relative viability: 0.304 for the first, 0.295 for the second.

Going from NCI-H1666 to NCI-H1734, the relative viability falls from 0.878 to 0.503.

Compared with NCI-H1755, NCI-H1792 is higher in relative viability: 0.45 for the first, 0.9 for the second.

Going from NCI-H1915 to NCI-H1944, the relative viability falls from 0.344 to 0.233.

First: NCI-H1975
Second: NCI-H1993
The relative viability of the first is lower: 0.33 for the first, 0.597 for the second.

Going from NCI-H2009 to NCI-H2023, the relative viability rises from 0.386 to 0.698.

Going from NCI-H2085 to NCI-H2087, the relative viability rises from 0.256 to 0.994.

Compared with NCI-H2126, NCI-H2170 is lower in relative viability: 0.641 for the first, 0.519 for the second.

NCI-H2342 gave a relative viability of 0.32.

same assay, conditions: first compound 0.01 µM

Compared with LXF-289, NCI-H23 is higher in relative viability: 0.192 for the first, 0.845 for the second.

First: NCI-H322M
Second: NCI-H358
The relative viability of the first is higher: 0.255 for the first, 0.2 for the second.

Going from NCI-H441 to NCI-H460, the relative viability rises from 0.376 to 0.568.

Compared with NCI-H520, NCI-H522 is higher in relative viability: 0.168 for the first, 0.885 for the second.

Compared with NCI-H596, NCI-H647 is lower in relative viability: 0.52 for the first, 0.149 for the second.

Compared with NCI-H650, NCI-H661 is higher in relative viability: 0.457 for the first, 1.03 for the second.

For NCI-H838, the relative viability was 0.291.
